Results from patent US7671054B1, “Reverse-turn mimetics and method relating thereto” (Choongwae Pharma Corporation, priority 2001, dated 2010).

Experiments:
Type in all cases: cell-based
SW480 cells = assay: Growth inhibition assay (MTS); details: Homo sapiens, SW480, 48 h, Table 5; SW480 cells, 48 hours treatment, MTS; read-out: Growth Inhibition (GI50, uM) SW480
Protocol: (§1) SW480 or HCT116 cells were placed into 96 well microplate (10^4cells/well) and incubated for 24 hours at 37° C. 20 μl of [3-(4,5-dimethylthiazol-2-yl)-5-(3-carboxyphenyl)-2-(4-sulfophenyl)-2H-tetrazolium, inner salt](MTS) solution (Promega) was added into each well and the absorbance after 2 hour incubation at 37° C. (negative control) was read. And then, the cells were treated with TCF4 compound at various concentrations for 48 hours. 20 μl of MTS solution (Promega) was added into each well and incubated for 2 hour at 37° C. Cell viability was measured by reading the absorbance at 490 nm using a microplate reader (Molecular device) and cytotoxicity of a compound at each concentration was calculated.
as §1, with “a test” for “TCF4”

HCT116 cells = assay: Growth inhibition assay (MTS); details: Homo sapiens, HCT-116, 48 h, Table 5; HCT116 cells, 48 hours treatment, MTS; read-out: Growth Inhibition (GI50, uM) HCT116
Protocol: as §1
as §1, with “a test” for “TCF4”

[1] = test system: TCF4/β-catenin transcription (TOPFlash) in SW480 cells; assay: Reporter gene assay (TOPFlash luciferase); details: Homo sapiens, SW480, Table 4; Reporter gene assay as described in Example 6; read-out: IC50
In short: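 SW480 cells transiently co-transfected with TOPFlash and pRL-null (4:1 µg) using Superfect, then reseeded at 3×10^4 cells/well and incubated overnight at 37 °C. Compound treatment lasted 24 h before luciferase read-out.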

CN1CC(=O)N2[C@@H]([C@H](O)c3ccc(O)cc3)C(=O)N(Cc3ccc(F)cc3F)C[C@@H]2N1C(=O)NCc1ccccc1 [Compound 86]
GI50 (SW480 cells): 9.6 ± 1.6 µM
GI50 (HCT116 cells): 6.5 ± 0.6 µM

C#CCN1CC(=O)N2[C@@H](Cc3ccc(O)cc3)C(=O)N(Cc3cc(F)c(F)cc3N(C)C)C[C@@H]2N1C(=O)NCc1ccccc1 [Compound 81]
GI50 (HCT116 cells): 1.8 ± 0.1 µM

C[C@H](c1ccccc1)N1CC2N(C(=O)CN(C)N2C(=O)NCc2ccccc2)[C@@H](Cc2ccc(O)cc2)C1=O (stereo partly drawn) [Compound 20]
IC50 [1]: 5.1 µM

CN1CC(=O)N2[C@@H](Cc3ccc(O)cc3)C(=O)N(Cc3ccc4cn[nH]c4c3)C[C@@H]2N1C(=O)NCc1ccccc1 [Compound 89]
IC50 [1]: 13.9 ± 0.9 µM

C=CCN1CC(=O)N2[C@@H](Cc3ccc(O)cc3)C(=O)N(Cc3ccc(Cl)c4scnc34)C[C@@H]2N1C(=O)NCc1ccccc1 [Compound 222]
IC50 [1]: 3.8 ± 2.7 µM

CC(C)N(C)c1cc(CN2C[C@H]3N(C(=O)CN(C)N3C(=O)NCc3ccccc3)[C@@H](Cc3ccc(O)cc3)C2=O)ccc1Cl [Compound 54]
IC50 [1]: 23.6 ± 5.6 µM

C=CCN1CC(=O)N2[C@@H](Cc3ccc(O)cc3)C(=O)N(Cc3ccc4c(c3)OCCN4C)C[C@@H]2N1C(=O)NCc1ccccc1 [Compound 147]
IC50 [1]: 9.4 ± 1 µM

CN1CC(=O)N2C(CN(Cc3ccccc3Cl)C(=O)[C@@H]2Cc2ccc(O)cc2)N1C(=O)NCc1ccccc1 (stereo partly drawn) [Compound 17]
IC50 [1]: 14.3 µM

C=CCN1CC(=O)N2[C@@H](Cc3ccc(O)cc3)C(=O)N(Cc3cccc4cccnc34)C[C@@H]2N1C(=O)NCc1ccc(Cl)c(Cl)c1 [Compound 199]
IC50 [1]: 1 ± 0.2 µM

C[C@H]1[C@H]2N(C(=O)CN(C)N2C(=O)NCc2ccccc2)[C@@H](Cc2ccc(O)cc2)C(=O)N1Cc1cccc(N(C)C)c1 [Compound 78]
IC50 [1]: 4.3 ± 0.9 µM

C=CCN1CC(=O)N2[C@@H](Cc3ccc(O)cc3)C(=O)N(Cc3cccc(N4CCCC4=O)c3)C[C@@H]2N1C(=O)NCc1ccccc1 [Compound 123]
GI50 (HCT116 cells): 1.7 ± 0.3 µM

C=CCN1CC(=O)N2[C@@H](Cc3ccc(O)cc3)C(=O)N(Cc3cccc4c3OCCN4C)C[C@@H]2N1C(=O)NCc1ccccc1 [Compound 158]
IC50 [1]: 0.9 ± 0.02 µM

C=CCN1CC(=O)N2[C@@H](Cc3ccc(O)cc3)C(=O)N(Cc3ccccc3)C[C@@H]2N1C(=O)NCc1ccccc1 [Compound 164]
IC50 [1]: 1.1 ± 0.2 µM

CCCN1CC(=O)N2[C@@H](Cc3ccc(NC=O)cc3)C(=O)N(Cc3ccc(F)cc3F)C[C@@H]2N1C(=O)NCc1ccccc1 [Compound 160]
IC50 [1]: 10.6 ± 0.5 µM

C=CCN1CC(=O)N2[C@@H](Cc3ccc(O)cc3)C(=O)N(Cc3cccc4c3N(C)CCO4)C[C@@H]2N1C(=O)NCc1ccccc1 [Compound 145]
IC50 [1]: 0.3 ± 0.04 µM

C=CCN1CC(=O)N2[C@@H](Cc3ccc(O)cc3)C(=O)N(Cc3cccc4sc(N5CCOCC5)nc34)C[C@@H]2N1C(=O)NCc1ccccc1 [Compound 219]
IC50 [1]: 2.2 ± 0.7 µM

C[C@H](c1ccc(F)cc1F)N1CC2N(C(=O)CN(C)N2C(=O)NCc2ccccc2)[C@@H](Cc2ccc(O)cc2)C1=O (stereo partly drawn) [Compound 195]
IC50 [1]: 22.3 ± 2.3 µM

C=CCN1CC(=O)N2[C@@H](Cc3ccc(OP(=O)(O)O)cc3)C(=O)N(Cc3cc(F)c(F)cc3N(C)C)C[C@@H]2N1C(=O)NCc1ccccc1 [Compound 163]
IC50 [1]: 1.7 ± 0.5 µM

C=CCc1nc2c(CN3C[C@H]4N(C(=O)CN(CC=C)N4C(=O)NCc4ccccc4)[C@@H](Cc4ccc(O)cc4)C3=O)cccc2s1 [Compound 220]
IC50 [1]: 1.1 ± 0.3 µM

CN(C)c1cccc(CN2C[C@H]3N(C(=O)CN(C)N3C(=O)NCc3ccccc3)[C@@H](Cc3ccc(O)cc3)C2=O)c1 [Compound 38]
IC50 [1]: 7.1 µM

C#CCn1ncc2cccc(CN3C[C@H]4N(C(=O)CN(C)N4C(=O)NCc4ccccc4)[C@@H](Cc4ccc(O)cc4)C3=O)c21 [Compound 105]
IC50 [1]: 16.6 ± 2.7 µM

CCCN1CC(=O)N2[C@@H](Cc3ccc(O)cc3)C(=O)N(Cc3ccccc3)C[C@@H]2N1C(=O)NCc1ccccc1 [Compound 168]
IC50 [1]: 3.5 ± 0.3 µM

CN1CC(=O)N2[C@@H](Cc3ccc(OCC(=O)O)cc3)C(=O)N(Cc3cccc4ccccc34)C[C@@H]2N1C(=O)NCc1ccccc1 [Compound 52]
IC50 [1]: 25 µM

CN1CC(=O)N2[C@@H](Cc3ccc(O)cc3)C(=O)N(Cc3ccc4ccccc4n3)C[C@@H]2N1C(=O)NCc1ccccc1 [Compound 39]
IC50 [1]: 9.7 µM

CN1CC(=O)N2[C@@H](Cc3ccc(O)cc3)C(=O)N(Cc3cccc(N4CCOCC4)c3)C[C@@H]2N1C(=O)NCc1ccccc1 [Compound 117]
IC50 [1]: 6.9 ± 0.6 µM

C=CCN1CC(=O)N2[C@@H](Cc3ccc(O)cc3)C(=O)N(Cc3ccc(OC)cc3)C[C@@H]2N1C(=O)NCc1ccc(Cl)c(Cl)c1 [Compound 215]
IC50 [1]: 18 ± 5.1 µM

CN1CC(=O)N2[C@@H](Cc3ccc(O)cc3)C(=O)N(Cc3cccc4cnn(CCN5CCOCC5)c34)C[C@@H]2N1C(=O)NCc1ccccc1 [Compound 94]
IC50 [1]: 7.6 ± 0.6 µM

CN1CC(=O)N2[C@@H](Cc3ccc(O)cc3)C(=O)N(Cc3ccc(F)c4ccccc34)C[C@@H]2N1C(=O)NCc1ccccc1 [Compound 25]
IC50 [1]: 3 µM

C=CCN1CC(=O)N2[C@@H](Cc3ccc(O)cc3)C(=O)N(Cc3cccc4c3OCCO4)C[C@@H]2N1C(=O)NCc1ccccc1 [Compound 203]
IC50 [1]: 0.7 ± 0.1 µM

CCN(CC)c1cccc(CN2C[C@H]3N(C(=O)CN(C)N3C(=O)NCc3ccccc3)[C@@H](Cc3ccc(O)cc3)C2=O)c1 [Compound 47]
IC50 [1]: 3.5 µM

CN1CC(=O)N2[C@@H](Cc3ccc(O)cc3)C(=O)N(Cc3cccc(N4CCCCC4)c3)C[C@@H]2N1C(=O)NCc1ccccc1 [Compound 71]
IC50 [1]: 6.5 ± 0.7 µM

CN1CC(=O)N2[C@@H](Cc3ccc(O)cc3)C(=O)N(Cc3cccc4cnn(Cc5ccccc5[N+](=O)[O-])c34)C[C@@H]2N1C(=O)NCc1ccccc1 [Compound 74]
IC50 [1]: 2.1 ± 0.2 µM

C[C@H](c1ccc(Cl)c2cccnc12)N1CC2N(C(=O)CN(C)N2C(=O)NCc2ccccc2)[C@@H](Cc2ccc(O)cc2)C1=O (stereo partly drawn) [Compound 198]
IC50 [1]: 5.8 ± 0.3 µM

CCOP(=O)(CC(=O)Nc1ccc(C[C@H]2C(=O)N(Cc3cccc4ccccc34)C[C@H]3N2C(=O)CN(C)N3C(=O)NCc2ccccc2)cc1)OCC [Compound 84]
IC50 [1]: 46.7 ± 6.7 µM

CN(Cc1ccccc1N)c1cccc(CN2C[C@H]3N(C(=O)CN(C)N3C(=O)NCc3ccccc3)[C@@H](Cc3ccc(O)cc3)C2=O)c1 [Compound 90]
IC50 [1]: 3.9 µM

C=CCN1CC(=O)N2[C@@H](Cc3ccc(O)cc3)C(=O)N(Cc3cccc(N4CCCC4=O)c3)C[C@@H]2N1C(=O)NCc1ccccc1 [Compound 152]
IC50 [1]: 1.2 ± 0.3 µM

CN1CC(=O)N2[C@@H](Cc3ccc(O)cc3)C(=O)N(Cc3cccc4cnn(Cc5cccc(N)c5)c34)C[C@@H]2N1C(=O)NCc1ccccc1 [Compound 92]
IC50 [1]: 3.8 ± 1.2 µM

C=CCN1CC(=O)N2[C@@H](Cc3ccc(O)cc3)C(=O)N(Cc3cccc4scnc34)C[C@@H]2N1C(=O)NCc1ccccc1 [Compound 182]
IC50 [1]: 0.6 ± 0.04 µM

C#CCN1CC(=O)N2[C@@H](Cc3ccc(O)cc3)C(=O)N(Cc3ccc(F)cc3F)C[C@@H]2N1C(=O)NCc1ccccc1 [Compound 144]
IC50 [1]: 2.1 ± 0.2 µM

CN1CC(=O)N2C(CN(Cc3ccc(Cl)cc3Cl)C(=O)[C@@H]2Cc2ccc(O)cc2)N1C(=O)NCc1ccccc1 (stereo partly drawn) [Compound 19]
IC50 [1]: 11.5 µM

COc1cccc(CN2CC3N(C(=O)CN(C)N3C(=O)NCc3ccccc3)[C@@H](Cc3ccc(O)cc3)C2=O)c1OC (stereo partly drawn) [Compound 23]
IC50 [1]: 10.7 µM

C=CCN1CC(=O)N2C(CN(Cc3cccc(N(C)C)c3)C(=O)[C@@H]2Cc2ccc(O)cc2)N1C(=O)NCc1ccccc1 (single isomer, unassigned) [Compound 192]
IC50 [1]: 1.3 ± 0.3 µM

CC(C)N(C)c1cccc([C@@H](C)N2C[C@H]3N(C(=O)CN(C)N3C(=O)NCc3ccccc3)[C@@H](Cc3ccc(O)cc3)C2=O)c1 [Compound 67]
IC50 [1]: 6.8 µM

CC(c1ccc(F)cc1)N1C[C@H]2N(C(=O)CN(C)N2C(=O)NCc2ccccc2)[C@@H](Cc2ccc(O)cc2)C1=O (stereo partly drawn) [Compound 37]
IC50 [1]: 2.3 µM

C[C@@H]1[C@H]2N(C(=O)CN(C)N2C(=O)NCc2ccccc2)[C@@H](Cc2ccc(O)cc2)C(=O)N1Cc1ccc(Cl)c(N(C)C)c1 [Compound 83]
IC50 [1]: 46.4 ± 3.7 µM

CN(C)c1cc(F)ccc1CN1C[C@H]2N(C(=O)CN(C)N2C(=O)NCc2ccccc2)[C@@H](Cc2ccc(O)cc2)C1=O [Compound 50]
IC50 [1]: 1.3 µM

CN1CC(=O)N2[C@@H](Cc3ccc(O)cc3)C(=O)N(Cc3ccc(Cl)c(Cl)c3)C[C@@H]2N1C(=O)NCc1ccccc1 [Compound 29]
IC50 [1]: 3.8 µM

CN1CC(=O)N2[C@@H](Cc3ccc(O)cc3)C(=O)N(Cc3cccc4ccccc34)C[C@@H]2N1C(=S)NCc1ccccc1 [Compound 35]
IC50 [1]: 11.4 µM

CN1CC(=O)N2[C@@H](Cc3ccc(O)cc3)C(=O)N(Cc3ccc4cnn(Cc5ccccc5N)c4c3)C[C@@H]2N1C(=O)NCc1ccccc1 [Compound 86]
IC50 [1]: 9.9 ± 2.6 µM

CN1CC(=O)N2[C@@H](Cc3ccc(O)cc3)C(=O)N(Cc3cccc4c3cnn4CCN3CCOCC3)C[C@@H]2N1C(=O)NCc1ccccc1 [Compound 98]
IC50 [1]: 14.4 ± 2.2 µM
